Data set [1] deals with Human renal proximal tubular epithelial cells (RPTEC). Description: Mild ATP depletion of cultured cells (in vitro ischemia) with antimycin A. Type of data set: cell-based. As to conditions: 1 μm antimycin; for ATP level (partial ATP depletion): mean+/-SD from four experiments. On the procedure: Human renal proximal tubular epithelial cells (RPTEC) were obtained from Clonetics (San Diego, Calif.). Cells were grown in Renal Epithelial Cell Basal Medium supplemented with REGM complex ([…] hydrocortisone, 10 pg/ml hEGF, 0.5 μg/ml epinephrine, 6.5 pg/ml triiodothyronine, 10 μg/ml transferrin, 5 μg/ml insulin, 1 μg/ml gentamicin sulfate, and 2% FBS), as recommended by the manufacturer.
We modified previously described protocols of in vitro ischemia by ATP depletion with inhibitors of oxidative phosphorylation (8, 9). On the second day post-confluence, RPTEC cells were incubated with 1 μm antimycin A (Sigma) for varying periods of time up to 6 h. […] ATP levels were monitored using a luciferase-based assay kit (Sigma), and expressed as a percentage of control values. Cells were harvested at various time points of ATP depletion, and analyzed for NGAL mRNA expression by RT-PCR and NGAL protein expression by Western analysis. The secretion of NGAL into the culture medium was also monitored.
In order to confirm the origin of NGAL from ischemic proximal tubule cells, we modified previously described protocols of in vitro ischemia by ATP depletion in cultured human proximal tubule cells (RPTEC). […] NGAL mRNA was just detectable in resting cells.

The subject of another data set is male Swiss-Webster mice. As to conditions: larger dose (20 μg/kg as printed), previously shown; cited from earlier work.
The subject of another data set is rat. As to conditions: after the initial insult; cited from earlier work.

Take antimycin A: the entries for the “ATP level (partial ATP depletion)” value in data set [1] (by 6 h) and in data set [1] (within 1 h) were “about 75±3 % of control” and “about 83±3 % of control”, respectively. Also, in data set [1] (up to 6 h), the “Morphological consequences of mild ATP depletion” value was “No morphological consequences”. Also, in data set [1] (following partial ATP depletion), the “NGAL mRNA induction by RT-PCR” value is “rapid and duration-dependent induction”.
For `N.N.[Cl][Pt][Cl]` [cisplatin], the “Time to tubule cell necrosis and apoptosis, and impaired renal function” value with male Swiss-Webster mice was 3 to 4 days. Further, in the data set with rat, the “Time at which KIM-1 is qualitatively detectable” value is 24 to 48 h.

Source of the values: patent publication US20130137116A1, “METHOD AND KIT FOR DETECTING THE EARLY ONSET OF RENAL TUBULAR CELL INJURY” (priority 2003, published 2013).
